According to ChEMBL document CHEMBL3044674, “Design and synthesis of positional isomers of 1-alkyl-2-trifluoromethyl-5 or 6-substituted benzimidazoles and their antimicrobial activity” (2013):
≈ marks a conversion by molar mass, not a printed value.

How the values were obtained:
Assay type in all cases: functional
Candida albicans = experiment: Antifungal activity against Candida albicans MTCC 227 after 24 hr by paper disk method; details: MTCC 227, 24 h
Aspergillus niger = experiment: Antifungal activity against Aspergillus niger MTCC 1344 after 24 hr by paper disk method; details: MTCC 1344, 24 h
Rhizopus arrhizus = experiment: Antifungal activity against Rhizopus oryzae MTCC 262 after 24 hr by paper disk method; details: MTCC 262, 24 h
Saccharomyces cerevisiae = experiment: Antifungal activity against Saccharomyces cerevisiae MTCC 36 after 24 hr by paper disk method; details: MTCC 36, 24 h
Escherichia coli = experiment: Antibacterial activity against Escherichia coli NCIM 2068 after 18 to 20 hr by plate method
Staphylococcus aureus = experiment: Antibacterial activity against Staphylococcus aureus NCIM 2079 after 18 to 20 hr by plate method
Pseudomonas aeruginosa = experiment: Antibacterial activity against Pseudomonas aeruginosa NCIM 2957 after 18 to 20 hr by plate method
Bacillus subtilis = experiment: Antibacterial activity against Bacillus subtilis NCIM 2921 after 18 to 20 hr by plate method

SMILES	MIC (Candida albicans) [µg/mL]	MIC (Aspergillus niger) [µg/mL]	MIC (Rhizopus arrhizus) [µg/mL]	MIC (Saccharomyces cerevisiae) [µg/mL]	MIC (Escherichia coli) [µg/mL]	MIC (Staphylococcus aureus) [µg/mL]	MIC (Pseudomonas aeruginosa) [µg/mL]	MIC (Bacillus subtilis) [µg/mL]	Activity (Escherichia coli)	Activity (Staphylococcus aureus)	Activity (Pseudomonas aeruginosa)	Activity (Bacillus subtilis)
O=[N+]([O-])c1ccc2c(c1)nc(C(F)(F)C(F)(F)F)n2CCCCCl	700 (≈ 1880 µM)	650 (≈ 1750 µM)	700 (≈ 1880 µM)	750 (≈ 2020 µM)								
O=[N+]([O-])c1ccc2nc(C(F)(F)C(F)(F)F)n(CCCCCl)c2c1	800 (≈ 2150 µM)	700 (≈ 1880 µM)	800 (≈ 2150 µM)	750 (≈ 2020 µM)								
CCOC(=O)Cn1c(C(F)(F)F)nc2ccc(C(=O)c3ccccc3)cc21	400 (≈ 1060 µM)	700 (≈ 1860 µM)	400 (≈ 1060 µM)	500 (≈ 1330 µM)								
CCOC(=O)Cn1c(C(F)(F)C(F)(F)F)nc2cc(C(=O)c3ccccc3)ccc21	700 (≈ 1640 µM)	1000 (≈ 2350 µM)	800 (≈ 1880 µM)	800 (≈ 1880 µM)	650 (≈ 1520 µM)	700 (≈ 1640 µM)	700 (≈ 1640 µM)	900 (≈ 2110 µM)	Dose-dependent effect	Dose-dependent effect	Dose-dependent effect	Dose-dependent effect
CCOC(=O)Cn1c(C(F)(F)F)nc2cc([N+](=O)[O-])ccc21	400 (≈ 1260 µM)	550 (≈ 1730 µM)	600 (≈ 1890 µM)	600 (≈ 1890 µM)	700 (≈ 2210 µM)	800 (≈ 2520 µM)	900 (≈ 2840 µM)	800 (≈ 2520 µM)	Dose-dependent effect	Dose-dependent effect	Dose-dependent effect	Dose-dependent effect
CCOC(=O)Cn1c(C(F)(F)C(F)(F)F)nc2ccc([N+](=O)[O-])cc21	900 (≈ 2450 µM)	800 (≈ 2180 µM)		900 (≈ 2450 µM)		800 (≈ 2180 µM)			Dose-dependent effect	Dose-dependent effect	Dose-dependent effect	Dose-dependent effect
O=[N+]([O-])c1ccc2c(c1)nc(C(F)(F)F)n2CCCCl	300 (≈ 975 µM)	300 (≈ 975 µM)	200 (≈ 650 µM)	400 (≈ 1300 µM)	200 (≈ 650 µM)	300 (≈ 975 µM)	400 (≈ 1300 µM)	350 (≈ 1140 µM)	Dose-dependent effect	Dose-dependent effect	Dose-dependent effect	Dose-dependent effect
CCOC(=O)Cn1c(C(F)(F)C(F)(F)F)nc2cc([N+](=O)[O-])ccc21	800 (≈ 2180 µM)	850 (≈ 2310 µM)	950 (≈ 2590 µM)	900 (≈ 2450 µM)	900 (≈ 2450 µM)		800 (≈ 2180 µM)		Dose-dependent effect	Dose-dependent effect	Dose-dependent effect	Dose-dependent effect
CCOC(=O)Cn1c(C(F)(F)F)nc2cc(C(=O)c3ccccc3)ccc21	500 (≈ 1330 µM)	800 (≈ 2130 µM)	450 (≈ 1200 µM)	600 (≈ 1590 µM)								
O=[N+]([O-])c1ccc2c(c1)nc(C(F)(F)F)n2CCCCCl	500 (≈ 1550 µM)	450 (≈ 1400 µM)	500 (≈ 1550 µM)	800 (≈ 2490 µM)	600 (≈ 1870 µM)	800 (≈ 2490 µM)	800 (≈ 2490 µM)	750 (≈ 2330 µM)	Dose-dependent effect	Dose-dependent effect	Dose-dependent effect	Dose-dependent effect
C#CCn1c(C(F)(F)F)nc2cc([N+](=O)[O-])ccc21	700 (≈ 2600 µM)	600 (≈ 2230 µM)	700 (≈ 2600 µM)	750 (≈ 2790 µM)								
CCOC(=O)Cn1c(C(F)(F)C(F)(F)F)nc2ccc(C(=O)c3ccccc3)cc21	700 (≈ 1640 µM)	900 (≈ 2110 µM)	850 (≈ 1990 µM)	700 (≈ 1640 µM)	600 (≈ 1410 µM)	900 (≈ 2110 µM)	900 (≈ 2110 µM)	850 (≈ 1990 µM)	Dose-dependent effect	Dose-dependent effect	Dose-dependent effect	Dose-dependent effect
O=[N+]([O-])c1ccc2nc(C(F)(F)F)n(CCCCCl)c2c1	600 (≈ 1870 µM)	650 (≈ 2020 µM)	400 (≈ 1240 µM)	700 (≈ 2180 µM)		800 (≈ 2490 µM)		700 (≈ 2180 µM)	Dose-dependent effect	Dose-dependent effect	Dose-dependent effect	Dose-dependent effect

Continued, in another order:

MIC (Candida albicans) [µg/mL]	MIC (Aspergillus niger) [µg/mL]	MIC (Rhizopus arrhizus) [µg/mL]	MIC (Saccharomyces cerevisiae) [µg/mL]	MIC (Escherichia coli) [µg/mL]	MIC (Staphylococcus aureus) [µg/mL]	MIC (Pseudomonas aeruginosa) [µg/mL]	MIC (Bacillus subtilis) [µg/mL]	SMILES	Activity (Escherichia coli)	Activity (Staphylococcus aureus)	Activity (Pseudomonas aeruginosa)	Activity (Bacillus subtilis)
900 (≈ 3470 µM)	800 (≈ 3090 µM)	850 (≈ 3280 µM)	800 (≈ 3090 µM)					CCn1c(C(F)(F)F)nc2ccc([N+](=O)[O-])cc21				
		800 (≈ 2960 µM)	900 (≈ 3330 µM)					N#CCn1c(C(F)(F)F)nc2ccc([N+](=O)[O-])cc21				
450 (≈ 1420 µM)	500 (≈ 1580 µM)	700 (≈ 2210 µM)	600 (≈ 1890 µM)	800 (≈ 2520 µM)	900 (≈ 2840 µM)	850 (≈ 2680 µM)	950 (≈ 2990 µM)	CCOC(=O)Cn1c(C(F)(F)F)nc2ccc([N+](=O)[O-])cc21	Dose-dependent effect	Dose-dependent effect	Dose-dependent effect	Dose-dependent effect
400 (≈ 1300 µM)	350 (≈ 1140 µM)	300 (≈ 975 µM)	500 (≈ 1630 µM)	400 (≈ 1300 µM)	350 (≈ 1140 µM)	450 (≈ 1460 µM)	300 (≈ 975 µM)	O=[N+]([O-])c1ccc2nc(C(F)(F)F)n(CCCCl)c2c1	Dose-dependent effect	Dose-dependent effect	Dose-dependent effect	Dose-dependent effect
700 (≈ 2700 µM)	750 (≈ 2890 µM)	700 (≈ 2700 µM)	850 (≈ 3280 µM)					CCn1c(C(F)(F)F)nc2cc([N+](=O)[O-])ccc21				
600 (≈ 2230 µM)	650 (≈ 2410 µM)	700 (≈ 2600 µM)	700 (≈ 2600 µM)					C#CCn1c(C(F)(F)F)nc2ccc([N+](=O)[O-])cc21				
